In PubChem BioAssay (NCI):
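Method: 48-hour compound exposure of cells in 96-well plates, five concentrations, linear interpolation of endpoints. The concentration for 50% growth inhibition is given as GI50. TGI: total growth inhibition.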 Where a SMILES comes first, the peptide text is derived from it. [ ]: non-standard residue; d: D form. The star is where a group is joined. ξ: configuration not given here. Decanoyl(3R-OH) = CCCCCCC[C@@H](O)CC(=O)*; ξK = NCCCCC(N)C(=O)O; ξP = O=C(O)C1CCCN1

Assays:
Assay in all cases: growth of human tumour cells (NCI), 48 h
SK-MEL-5 melanoma = tested on: SK-MEL-5 melanoma
HCT-15 colon = tested on: HCT-15 colon
COLO 205 colon = tested on: COLO 205 colon
A498 renal = tested on: A498 renal
SF-295 CNS = tested on: SF-295 CNS
BT-549 breast = tested on: BT-549 breast
HCC-2998 colon = tested on: HCC-2998 colon
NCI-H460 lung = tested on: NCI-H460 lung
SNB-75 CNS = tested on: SNB-75 CNS
OVCAR-5 ovarian = tested on: OVCAR-5 ovarian
NCI-H23 lung = tested on: NCI-H23 lung
K-562 leukemia = tested on: K-562 leukemia
PC-3 prostate = tested on: PC-3 prostate
MOLT-4 leukemia = tested on: MOLT-4 leukemia
HS 578T breast = tested on: HS 578T breast
SF-268 CNS = tested on: SF-268 CNS
ACHN renal = tested on: ACHN renal
OVCAR-8 ovarian = tested on: OVCAR-8 ovarian
UO-31 renal = tested on: UO-31 renal
LOX IMVI melanoma = tested on: LOX IMVI melanoma
T-47D breast = tested on: T-47D breast
IGROV1 ovarian = tested on: IGROV1 ovarian
MDA-MB-231 breast = tested on: MDA-MB-231 breast
SF-539 CNS = tested on: SF-539 CNS
HCT-116 colon = tested on: HCT-116 colon
SW-620 colon = tested on: SW-620 colon
HT29 colon = tested on: HT29 colon
HOP-92 NSCLC = tested on: HOP-92 NSCLC
NCI-H226 lung = tested on: NCI-H226 lung
EKVX NSCLC = tested on: EKVX NSCLC
DU-145 prostate = tested on: DU-145 prostate
RPMI-8226 leukemia = tested on: RPMI-8226 leukemia
SK-MEL-2 melanoma = tested on: SK-MEL-2 melanoma
NCI/ADR-RES ovarian = tested on: NCI/ADR-RES ovarian
SR leukemia = tested on: SR leukemia
OVCAR-3 ovarian = tested on: OVCAR-3 ovarian
SNB-19 CNS = tested on: SNB-19 CNS
NCI-H522 lung = tested on: NCI-H522 lung
SK-OV-3 ovarian = tested on: SK-OV-3 ovarian
UACC-62 melanoma = tested on: UACC-62 melanoma
SN12C renal = tested on: SN12C renal
OVCAR-4 ovarian = tested on: OVCAR-4 ovarian
A549 NSCLC = tested on: A549 NSCLC
HL-60(TB) leukemia = tested on: HL-60(TB) leukemia
HOP-62 NSCLC = tested on: HOP-62 NSCLC
UACC-257 melanoma = tested on: UACC-257 melanoma
RXF 393 renal = tested on: RXF 393 renal
SK-MEL-28 melanoma = tested on: SK-MEL-28 melanoma
TK-10 renal = tested on: TK-10 renal
786-0 renal = tested on: 786-0 renal
KM12 colon = tested on: KM12 colon
U251 CNS = tested on: U251 CNS
MALME-3M melanoma = tested on: MALME-3M melanoma
M14 melanoma = tested on: M14 melanoma
MDA-MB-435 = tested on: MDA-MB-435
MCF7 breast = tested on: MCF7 breast
CCRF-CEM leukemia = tested on: CCRF-CEM leukemia

O=C1C2=C(C(=O)c3c(O)ccc(O)c31)N(c1ccc(N3CCOCC3)nc1)Cc1ccccc1O2
GI50 (SK-MEL-5 melanoma): 1360 nM | TGI (SK-MEL-5 melanoma): 2760 nM | GI50 (HCT-15 colon): 205 nM | TGI (HCT-15 colon): 622 nM | GI50 (COLO 205 colon): 137 nM | TGI (COLO 205 colon): 318 nM | GI50 (A498 renal): 2300 nM | TGI (A498 renal): 4740 nM | GI50 (SF-295 CNS): 2010 nM | TGI (SF-295 CNS): 4630 nM | GI50 (BT-549 breast): 249 nM | TGI (BT-549 breast): 845 nM | GI50 (HCC-2998 colon): 1560 nM | TGI (HCC-2998 colon): 2990 nM | GI50 (NCI-H460 lung): 1310 nM | TGI (NCI-H460 lung): 4060 nM | GI50 (SNB-75 CNS): 1240 nM | TGI (SNB-75 CNS): 7270 nM | GI50 (OVCAR-5 ovarian): 777 nM | TGI (OVCAR-5 ovarian): 2300 nM | GI50 (NCI-H23 lung): 421 nM | TGI (NCI-H23 lung): 1880 nM | GI50 (K-562 leukemia): 88.9 nM | GI50 (PC-3 prostate): 387 nM | TGI (PC-3 prostate): 1890 nM | GI50 (MOLT-4 leukemia): 87.2 nM | GI50 (HS 578T breast): 1520 nM | TGI (HS 578T breast): > 55400 nM | GI50 (SF-268 CNS): 1370 nM | TGI (SF-268 CNS): 4060 nM | GI50 (ACHN renal): 53.4 nM | TGI (ACHN renal): 237 nM | GI50 (OVCAR-8 ovarian): 350 nM | TGI (OVCAR-8 ovarian): 12300 nM | GI50 (UO-31 renal): 131 nM | TGI (UO-31 renal): 429 nM | GI50 (LOX IMVI melanoma): 188 nM | TGI (LOX IMVI melanoma): 517 nM | GI50 (T-47D breast): 205 nM | TGI (T-47D breast): 900 nM | GI50 (IGROV1 ovarian): 277 nM | TGI (IGROV1 ovarian): 1140 nM | GI50 (MDA-MB-231 breast): 243 nM | TGI (MDA-MB-231 breast): 814 nM | GI50 (SF-539 CNS): 276 nM | TGI (SF-539 CNS): 944 nM | GI50 (HCT-116 colon): 96.6 nM | TGI (HCT-116 colon): 332 nM | GI50 (SW-620 colon): 152 nM | TGI (SW-620 colon): 500 nM | GI50 (HT29 colon): 294 nM | TGI (HT29 colon): 787 nM | GI50 (HOP-92 NSCLC): 202 nM | TGI (HOP-92 NSCLC): 469 nM | GI50 (NCI-H226 lung): 1910 nM | TGI (NCI-H226 lung): 7810 nM | GI50 (EKVX NSCLC): 270 nM | TGI (EKVX NSCLC): 1670 nM | GI50 (DU-145 prostate): 326 nM | TGI (DU-145 prostate): 1030 nM | GI50 (RPMI-8226 leukemia): 265 nM | TGI (RPMI-8226 leukemia): 945 nM | GI50 (SK-MEL-2 melanoma): 1390 nM | TGI (SK-MEL-2 melanoma): 3750 nM | GI50 (NCI/ADR-RES ovarian): 401 nM | TGI (NCI/ADR-RES ovarian): 13000 nM | GI50 (SR leukemia): 108 nM | TGI (SR leukemia): > 100000 nM | GI50 (OVCAR-3 ovarian): 227 nM | TGI (OVCAR-3 ovarian): 651 nM | GI50 (SNB-19 CNS): 1450 nM | TGI (SNB-19 CNS): 3600 nM | GI50 (NCI-H522 lung): 58.1 nM | TGI (NCI-H522 lung): 194 nM | GI50 (SK-OV-3 ovarian): 2890 nM | TGI (SK-OV-3 ovarian): 11800 nM | GI50 (UACC-62 melanoma): 369 nM | TGI (UACC-62 melanoma): 1560 nM | GI50 (SN12C renal): 262 nM | TGI (SN12C renal): 848 nM | GI50 (OVCAR-4 ovarian): 282 nM | TGI (OVCAR-4 ovarian): 1050 nM | GI50 (A549 NSCLC): 2880 nM | TGI (A549 NSCLC): 9110 nM | GI50 (HL-60(TB) leukemia): 170 nM | TGI (HL-60(TB) leukemia): 616 nM | GI50 (HOP-62 NSCLC): 1520 nM | TGI (HOP-62 NSCLC): 3970 nM | GI50 (UACC-257 melanoma): 556 nM | TGI (UACC-257 melanoma): 1520 nM | GI50 (RXF 393 renal): 148 nM | TGI (RXF 393 renal): 308 nM | GI50 (SK-MEL-28 melanoma): 275 nM | TGI (SK-MEL-28 melanoma): 785 nM | GI50 (TK-10 renal): 339 nM | TGI (TK-10 renal): 947 nM | GI50 (786-0 renal): 206 nM | TGI (786-0 renal): 450 nM | GI50 (KM12 colon): 1550 nM | TGI (KM12 colon): 3920 nM | GI50 (U251 CNS): 603 nM | TGI (U251 CNS): 2210 nM | GI50 (MALME-3M melanoma): 134 nM | TGI (MALME-3M melanoma): 418 nM | GI50 (M14 melanoma): 276 nM | TGI (M14 melanoma): 894 nM | GI50 (MDA-MB-435): 321 nM | TGI (MDA-MB-435): 1050 nM | GI50 (MCF7 breast): 161 nM | TGI (MCF7 breast): 658 nM | GI50 (CCRF-CEM leukemia): 77.8 nM

CCCCCCC[C@@H](O)CC(=O)N[C@H](CCCCN)C(=O)N[C@H](Cc1c[nH]c2ccccc12)C(=O)NC(CCCCN)C(=O)N[C@H](CC(C)C)C(=O)N[C@H](Cc1ccccc1)C(=O)N[C@H](CCCCN)C(=O)N[C@H](CCCCN)C(=O)N[C@H](CC(C)C)C(=O)N1CCCC1C(=O)N[C@H](CCCCN)C(=O)N[C@H](Cc1ccccc1)C(=O)N[C@H](CC(C)C)C(=O)N[C@H](Cc1c[nH]cn1)C(=O)N[C@H](CC(C)C)C(=O)N[C@H](C)C(=O)N[C@H](CCCCN)C(=O)N[C@H](CCCCN)C(=O)N[C@H](Cc1ccccc1)C(=O)O (stereo partly drawn) ({Decanoyl(3R-OH)}-[dK][dW][ξK][dL][dF][dK][dK][dL][ξP][dK][dF][dL][dH][dL][dA][dK][dK][dF]-OH)
GI50 (OVCAR-8 ovarian): 814 nM | TGI (OVCAR-8 ovarian): 33300 nM | GI50 (DU-145 prostate): 607 nM | TGI (DU-145 prostate): 1120 nM | GI50 (HL-60(TB) leukemia): 743 nM | TGI (HL-60(TB) leukemia): 1710 nM

C=CCOC(=O)CCCCCCCCCCCCCCCOC(=O)C1=C(CCC[C@@H](C)O[Si](C)(C)C(C)(C)C)N=C(N)N2[C@H](CC3(CC/C=C\[C@H](CC)O[Si](C(C)C)(C(C)C)C(C)C)OCCO3)CC[C@@H]12
TGI (A498 renal): > 100000 nM | TGI (HCC-2998 colon): > 100000 nM | TGI (SNB-75 CNS): > 100000 nM | TGI (ACHN renal): > 100000 nM | TGI (UO-31 renal): > 100000 nM | TGI (T-47D breast): > 100000 nM | TGI (MDA-MB-231 breast): > 100000 nM | TGI (NCI-H226 lung): > 100000 nM | TGI (DU-145 prostate): > 100000 nM | TGI (SK-MEL-2 melanoma): > 100000 nM | TGI (SNB-19 CNS): > 100000 nM | TGI (SK-OV-3 ovarian): > 100000 nM | TGI (SN12C renal): > 100000 nM | TGI (OVCAR-4 ovarian): > 100000 nM | TGI (SK-MEL-28 melanoma): > 100000 nM | TGI (TK-10 renal): > 100000 nM | TGI (MCF7 breast): > 100000 nM
